According to article PMC5802278, “Molecular and cellular mechanisms of HIF prolyl hydroxylase inhibitors in clinical trials” (Chemical Science, 2017):
Where two headings read alike, the source gives them in different places.

Legend:
[1] = system: HIF-1α Pro402 (NODD), Pro564 (CODD) and Asn803 hydroxylation in RCC4 cells; experiment: Immunoblotting of HIF-1α hydroxylation in VHL-deficient RCC4 cells; type: cell-based, human; details: 6 hours; for inhibition of HIF-1α NODD and CODD hydroxylation: titration; for comparison of inhibition of NODD and CODD hydroxylation: RCC4 cells, 10, 50 and 100 μM
Experimental: To test whether the cellular HIF-α induction occurs via inhibition of HIF-α hydroxylation, we utilized a Von Hippel–Lindau (VHL)-deficient renal cell carcinoma cell line RCC4, in which HIF-α is constitutively stabilized in normoxia due to loss of functional VHL.[77] We used antibodies specific for hydroxylation at the N-terminal and C-terminal oxygen-dependent degradation domains, Pro402 (NODD) and Pro564 (CODD) at HIF-1α.[78] HIF-1α hydroxylation status was analyzed after 6 hours treatment. […]. page 15: […]
Cell Culture and Immunoblotting
HeLa and RCC4 cells were cultured in Dulbecco’s Modified Eagle’s Medium (DMEM; Sigma Aldrich D6546-500ML) supplemented with 10% fetal bovine serum (Sigma Aldrich F7524-500ML), 4 mM L-glutamine (Sigma Aldrich G7513- 100ML), 50 U/mL penicillin, and 50 μg/mL streptomycin (Sigma Aldrich P0781-100ML). Cells were seeded to reach 90-100% confluency prior to compound treatment. Cells were exposed to the inhibitor at a final concentration of 1% DMSO for 5-6 hours. For Fe(II) titration in the presence of inhibitors, ferric ammonium citrate was added to the cells for further 16 hours after 6 hours of incubation […]
Cells were harvested in urea/SDS buffer (6.7 M urea, 10 mM Tris-Cl pH 6.8, 10% glycerol, and1% SDS) supplemented with 1mM dithiothreitol following a phosphate-buffered saline (PBS) rinse. Cell extracts were analyzed with SDS-PAGE, electroblotted to polyvinylidene difluoride (PVDF) membrane (Millipore) and probed with the corresponding primary antibody for 1 hour at room temperature or overnight at 4 °C. The secondary antibody specific to primary antibody species conjugated with HRP were applied at room temperature for 1 hour.
The antibodies used for immonoblotting were as follows: pan-anti-HIF-1α (clone 54, BD Transduction Laboratories™), anti-HIF-1α Hyp402 (catalogue number 07-1585, Merck Millipore), anti-HIF-1α Hyp564 (D43B5, Cell Signaling), anti-HIF-1α HyN803 (a generous gift from Lee et al.15), PHD216, PHD316, and HRP-conjugated anti-β-actin (clone AC15, Abcam). Details of antibodies used are given in Tian et al.17 Detection of signal was achieved using SuperSignal™ West Dura Extended Duration Substrate kTM it (Thermo Scientific 34075, unless otherwise stated) either with film or ChemiDoc MP (BIO-RAD) imaging system. TM Quantification of the immunobloting signal was performed with Image Lab software from […]

[2] = biological target: PHD2 catalytic domain (residues 181-426) (Homo sapiens, UniProt Q9GZT9); experiment: NMR competition assays (2OG, CODD, NODD displacement); type: binding; set-up: The catalytic domain of human PHD2 (residues 181-426) was used in all; made in house; details: for 2OG displacement: inhibitor at 400 μM, PHD2 at 10 μM, 1H CPMG
Experimental: 2OG displacement experiments were monitored by CPMG-edited 1H NMR using a Bruker […]
supplemented with 60 µM Zn(II) and increasing concentrations of the inhibitors from a […]
(90°x−[τ−180°y−τ−90°y−τ−180°y−τ]n−acq), was applied. Typical experimental parameters were […]
suppression was achieved by presaturation.
For 13C-CODD and […] displacement experiments, 1D Clean In-Phase (CLIP) HSQC with selective 13C-inversion displacement experiments were conducted using a Bruker AV700 instrument. 3 mm MATCH NMR tubes were used (Cortecnet). All experiments were […]
prolyl-ring. 7 The CLIP-HSQC sequence was used for 1D HSQC experiments (without 13C decoupling).8 Relaxation delay was 2s. The 1JCH was set to 160 Hz. A 6.8 ms Q3.1000 180 degree pulse was used and selective irradiation was applied at the selected chemical shift. […]

Ofd1 = biological target: T1, Ofd1 (Schizosaccharomyces pombe, UniProt Q11120); experiment: MALDI-TOF MS Ofd1 hydroxylation assay; type: biochemical
T1 construct: His6 (N); made in house; host or cells: E. coli BL21(DE3)
T1 sequence (Q11120 1-515): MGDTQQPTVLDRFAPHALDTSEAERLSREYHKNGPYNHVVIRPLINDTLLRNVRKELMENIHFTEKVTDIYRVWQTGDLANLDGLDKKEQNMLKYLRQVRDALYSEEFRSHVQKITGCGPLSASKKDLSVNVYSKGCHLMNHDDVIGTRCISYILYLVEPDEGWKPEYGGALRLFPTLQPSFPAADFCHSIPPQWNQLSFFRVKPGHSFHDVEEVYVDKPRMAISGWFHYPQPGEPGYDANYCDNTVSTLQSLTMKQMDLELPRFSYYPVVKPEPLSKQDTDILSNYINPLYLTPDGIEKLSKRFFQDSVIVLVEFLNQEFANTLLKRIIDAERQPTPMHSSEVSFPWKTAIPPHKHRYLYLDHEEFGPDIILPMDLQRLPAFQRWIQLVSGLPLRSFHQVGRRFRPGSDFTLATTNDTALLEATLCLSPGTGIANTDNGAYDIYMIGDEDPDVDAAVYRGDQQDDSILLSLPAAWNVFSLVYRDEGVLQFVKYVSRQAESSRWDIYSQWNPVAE

PHD3 = PHD3 (Homo sapiens, UniProt Q9H6Z9); experiment: MALDI-TOF MS PHD hydroxylation assay; type: biochemical
Experimental: (§1) Protocols for in vitro PHD1–3 MALDI-TOF MS hydroxylation assays[30] and for the AlphaScreen histone demethylase assays[44] were as reported.
(§2) Although sharing homologous C-terminal catalytic domains, the N-terminal regions of PHD1–3 vary. […] In vitro inhibition assays of the clinical trial PHD inhibitors (and some of their structurally related analogue) against 1 μM recombinant human PHD1–3 were performed.
(§3) Fig. S11. In vitro PHD isoform selectivity profiling of PHD inhibitors. Inhibition of PHD inhibitors against human PHD125 -3 as assayed by MALDI-TOF MS (the protocol is described in Chan et al. ). Eight concentrations were used to obtained dose-response curve for each compound. Data points presented in the graph are mean with standard deviation, n=3. IC50 values (listed in Supplemental Table S3) were calculated using GraphPad Prism® 5.04.
(§4) (1 picture or pasted object on this page, not shown here)

PHD1 = PHD1 (Homo sapiens, UniProt Q96KS0); experiment: MALDI-TOF MS PHD hydroxylation assay; type: biochemical
Experimental: as §1, §2, §3, §4

[3] = 1D-selective HSQC with selective 13C inversion
[4] = 1μM isolated recombinant human PHD3, MALDI-TOF MS, read-out: IC50 PHD3
[5] = 1μM isolated recombinant human PHD1, MALDI-TOF MS, read-out: IC50 PHD1
[6] = isolated recombinant enzyme, 1 μM, read-out: IC50 Ofd1

Sequence of PHD1 (Q96KS0 whole entry): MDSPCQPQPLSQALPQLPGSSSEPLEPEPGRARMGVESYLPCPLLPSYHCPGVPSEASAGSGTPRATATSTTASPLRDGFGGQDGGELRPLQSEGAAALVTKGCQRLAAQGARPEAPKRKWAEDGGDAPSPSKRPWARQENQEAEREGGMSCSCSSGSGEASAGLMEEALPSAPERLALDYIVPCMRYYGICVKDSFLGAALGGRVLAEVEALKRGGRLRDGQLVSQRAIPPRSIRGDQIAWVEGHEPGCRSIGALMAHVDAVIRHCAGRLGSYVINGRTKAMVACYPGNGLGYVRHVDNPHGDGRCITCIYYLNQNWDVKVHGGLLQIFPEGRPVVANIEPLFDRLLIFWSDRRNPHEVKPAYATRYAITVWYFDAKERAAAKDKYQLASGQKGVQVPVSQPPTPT
Sequence of PHD3 (Q9H6Z9 whole entry): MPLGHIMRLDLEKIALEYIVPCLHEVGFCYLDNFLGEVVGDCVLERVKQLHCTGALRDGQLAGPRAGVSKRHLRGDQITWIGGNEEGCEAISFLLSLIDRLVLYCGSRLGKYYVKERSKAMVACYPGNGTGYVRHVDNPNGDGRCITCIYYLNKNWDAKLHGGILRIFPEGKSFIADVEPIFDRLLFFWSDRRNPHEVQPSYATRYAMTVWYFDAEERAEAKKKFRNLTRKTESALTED
Sequence of PHD2 catalytic domain (residues 181-426) (Q9GZT9 181-426): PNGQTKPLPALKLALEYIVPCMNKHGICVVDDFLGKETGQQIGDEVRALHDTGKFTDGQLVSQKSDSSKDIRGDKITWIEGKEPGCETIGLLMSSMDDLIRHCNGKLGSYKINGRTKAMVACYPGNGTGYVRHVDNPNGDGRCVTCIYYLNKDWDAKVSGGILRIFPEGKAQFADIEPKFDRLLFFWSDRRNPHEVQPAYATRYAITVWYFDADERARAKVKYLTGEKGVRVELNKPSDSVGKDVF

Row | Compound | inhibition of HIF-1α NODD and CODD hydroxylation ([1]; RCC4 cells) | 13C-NODD displacement [2, 3] | 2OG displacement [2] | IC50 (Ofd1) | IC50 (PHD3; [4]) | IC50 (PHD1; [5]) | inhibition of NODD hydroxylation ([1]; RCC4 cells, 50 μM) | inhibition of NODD hydroxylation ([1]; RCC4 cells, 100 μM) | inhibition of CODD hydroxylation ([1]; RCC4 cells, up to 100 μM) | inhibition of hydroxylation of Asn803 ([1]; RCC4 cells, up to 200 μM) | comparison of inhibition of NODD and CODD hydroxylation [1] | inhibition of CODD hydroxylation ([1]; RCC4 cells, 50 μM) | inhibition of HIF-1α Asn803 hydroxylation ([1]; RCC4 cells, up to 100 μM) | 13C-CODD displacement [2, 3] | IC50 (Ofd1; [6]) | IC50 (PHD3) | IC50 (PHD1)
1 | CC(C)(C)OC(=O)c1ccc(-n2[nH]cc(-n3ccnn3)c2=O)nc1 [IOX4] | inhibited both NODD and CODD hydroxylation in a dose dependent manner | clearly displaced NODD | completely displaced 2OG | 41300 nM | 690 nM | 550 nM | – | – | – | – | – | – | – | – | – | – | –
2 | O=C(O)CNC(=O)c1ncc(-c2cccc(Cl)c2)cc1O [Vadadustat] | – | clearly displaced NODD | completely displaced 2OG | – | 260 nM | 840 nM | no sign of PHD inhibition | only slight inhibition | no clear inhibition | not observed | – | – | – | – | – | – | –
3 | Cc1nc(C(=O)NCC(=O)O)c(O)c2ccc(Oc3ccccc3)cc12 [FG-4592] | inhibited both NODD and CODD hydroxylation in a dose dependent manner | clearly displaced NODD | completely displaced 2OG | – | 1320 nM | 1400 nM | significantly inhibited | – | – | – | greatest inhibition of CODD hydroxylation among the inhibitors | clear inhibition | no sign of HIF-1α Asn803 hydroxylation inhibition | efficiently displaced CODD | 8500 nM | – | –
4 | O=C(O)CNC(=O)C1C(=O)N(C2CCCCC2)C(=O)N(C2CCCCC2)C1=O [GSK1278863] | inhibited both NODD and CODD hydroxylation in a dose dependent manner | – | – | 23900 nM | – | – | – | – | – | – | better inhibits NODD than CODD hydroxylation | – | no sign of HIF-1α Asn803 hydroxylation inhibition | – | – | 610 nM | 1500 nM
5 | O=c1c(-n2ccnn2)c[nH]n1-c1cc(N2CCOCC2)ncn1 [Molidustat] | inhibited both NODD and CODD hydroxylation in a dose dependent manner | barely detectable | completely displaced 2OG | – | 720 nM | 1450 nM | – | – | – | – | weaker inhibition of both hydroxylation sites compared to FG-4592 and GSK1278863 at 10 μM | – | no sign of HIF-1α Asn803 hydroxylation inhibition | – | 10300 nM | – | –
